Test results reported in patent US20250376472A1, “3-(PHENYLSULFONYL)-[1,2,3]TRIAZOLO[1,5A]QUINAZOLIN-5(4H)-ONE DERIVATIVES” (priority 2022, published 2025).

Biological target: T1, AgrA (Staphylococcus aureus, UniProt P0A0I7)
T1 construct: endogenous in cells; host or cells: S. aureus USA300 strain UAMS-1625 carrying a P3-lacZ reporter plasmid
Assay: cell-based
Parameters: species or system S. aureus
Details: for Ratio IC50 (in presence of HSA)/IC50 (in absence of HSA): 40 mg/mL HSA versus no HSA
Protocol: The inventive compounds are 3-(phenylsulfonyl)-[1,2,3]triazolo[1,5a]quinazolin-5(4h)-one derivatives comprising an N-bound piperazine or homopiperazine at the 8-position of the [1,2,3]triazolo[1,5a]quinazolin-5(4h)-one core, further substituted (on the second nitrogen atom) by an (optionally substituted) acetyl or propionyl amide group. […] Specifically, the reporter gene lacZ (which encodes the protein product β-galactosidase) was transfected into S. aureus with a plasmid under control of the P3 promoter. The compounds were serially diluted in lysogeny broth (LB), and incubated with S. aureus. Following incubation, the S. aureus cells were lysed and treated with 4-methylumbelliferyl-galactopyranoside (MUG). The β-galactosidase produced by expression of lacZ cleaved the MUG into galactopyranose and 4-methylumbelliferone, which was measured by fluorescence.
The resulting reporter strain was used to measure AgrA inhibitory activity as follows. From an overnight culture plate, cells were resuspended in 0.9% (w/v) saline solution and bacterial inoculum was prepared in LB medium with 5×10^5 CFU/ml. Compounds were two-fold serially diluted in LB and 50 μL of this 10× concentrated samples were added into the 96-deep well plate. 500 μL of bacterial suspension was finally added to the compounds or DMSO control. Plates were covered and incubated with shaking at 37° C. After 18 hours incubation, 100 μL was transferred to a new clear 96-well plate and the OD600 was measured using a TECAN Infinite F200 microplate reader to control for growth inhibition. Another 100 μL was transferred to a new black 96-well plate containing 30 μL of lysis buffer (20 mM Tris/HCl, 3 mM MgCl2, 0.5% Tween 20 (v/v), 0.5% NP-40 (v/v)) and the plate was incubated with shaking at 37° C. for 60 min. 20 μL of the substrate MUG (4-Methylumbelliferyl O-D-galactopyranoside) at 0.25 mg/ml was added and the fluorescence (excitation: 360 nm, emission: 450 mu) was measured with a TECAN Infinite F200 microplate reader after 3 hours incubation at 37° C. with shaking. The IC50 was determined using GraphPad PRISM after normalization to DMSO control.

[1] = IC50 at 40 mg/mL HSA, LB medium supplemented with human serum albumin 40 mg/mL
[2] = IC50 without HSA, LB medium, no human serum albumin, 18 hours incubation
[3] = LB medium supplemented with human serum albumin 40 mg/mL
[4] = LB medium, no human serum albumin, 18 hours incubation

T1 sequence (P0A0I7 whole entry): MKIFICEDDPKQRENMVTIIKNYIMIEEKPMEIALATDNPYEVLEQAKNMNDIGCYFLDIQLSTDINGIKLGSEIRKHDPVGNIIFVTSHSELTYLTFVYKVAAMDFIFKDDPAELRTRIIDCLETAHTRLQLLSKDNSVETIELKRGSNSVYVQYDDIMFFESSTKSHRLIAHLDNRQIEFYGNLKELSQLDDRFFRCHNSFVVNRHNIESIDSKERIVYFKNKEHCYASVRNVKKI

| SMILES | IC50 [1] [µM] | IC50 [2] [µM] | also measured |
| --- | --- | --- | --- |
| Cc1ccc(S(=O)(=O)c2nnn3c2[nH]c(=O)c2ccc(N4CCN(CC(=O)NCCc5ccccc5)CC4)cc23)c(C)c1 [Compound 109] | 16.7 to 83.4 | < 1.67 | – |
| Cc1ccc(S(=O)(=O)c2nnn3c2[nH]c(=O)c2ccc(N4CCN(CC(=O)NC(C)C)CC4)cc23)c(C)c1 [Compound 6] | < 18.6 | < 1.86 | – |
| Cc1ccc(S(=O)(=O)c2nnn3c2[nH]c(=O)c2ccc(N4CCCN(CC(=O)NC5CCN(C)CC5)CC4)cc23)c(C)c1 [Compound 102] | – | – | Ratio IC50 (in presence of HSA)/IC50 (in absence of HSA): +++ (+++: ratio ≤ 25); IC50 at 40 mg/mL HSA [3]: ++ (++: 10 μg/mL < IC50 ≤ 50 μg/mL); IC50 without HSA [4]: ++ (++: 1 μg/mL < IC50 ≤ 5 μg/mL) |
| Cc1ccc(S(=O)(=O)c2nnn3c2[nH]c(=O)c2ccc(N4CCN(CC(=O)NCCCC(F)(F)F)CC4)cc23)c(C)c1 [Compound 15] | 16.5 to 82.6 | < 1.65 | – |
| Cc1ccc(S(=O)(=O)c2nnn3c2[nH]c(=O)c2ccc(N4CCN(CC(=O)N5CCNCC5)CC4)cc23)c(C)c1 [Compound 134] | < 17.7 | 1.77 to 8.85 | – |
| Cc1ccc(S(=O)(=O)c2nnn3c2[nH]c(=O)c2ccc(N4CCCN(CC(=O)NCCO)CC4)cc23)c(C)c1 [Compound 32] | 18.1 to 90.3 | 1.81 to 9.03 | – |
| Cc1ccc(S(=O)(=O)c2nnn3c2[nH]c(=O)c2ccc(N4CCN(CC(=O)NCCCN5CCOCC5)CC4)cc23)c(C)c1 [Compound 92] | 16.1 to 80.3 | 1.61 to 8.03 | – |
| Cc1ccc(S(=O)(=O)c2nnn3c2[nH]c(=O)c2ccc(N4CCN(CC(=O)N5CCN(C(C)(C)C)CC5)CC4)cc23)c(C)c1 [Compound 59] | < 16.1 | 1.61 to 8.05 | – |
| CSCCNC(=O)CN1CCN(c2ccc3c(=O)[nH]c4c(S(=O)(=O)c5ccc(C)cc5C)nnn4c3c2)CC1 [Compound 18] | 17.6 to 87.8 | < 1.76 | – |
| Cc1ccc(S(=O)(=O)c2nnn3c2[nH]c(=O)c2ccc(N4CCN(CC(=O)NCCN5CCCCC5)CC4)cc23)c(C)c1 [Compound 90] | 16.5 to 82.4 | 1.65 to 8.24 | – |
| Cc1ccc(S(=O)(=O)c2nnn3c2[nH]c(=O)c2ccc(N4CCCN(CC(=O)NC5CCCC5)CC4)cc23)c(C)c1 [Compound 52] | 17.3 to 86.5 | 1.73 to 8.65 | – |
| COCCNC(=O)CN1CCCN(c2ccc3c(=O)[nH]c4c(S(=O)(=O)c5ccc(C)cc5C)nnn4c3c2)CC1 [Compound 31] | – | – | Ratio IC50 (in presence of HSA)/IC50 (in absence of HSA): +++ (+++: ratio ≤ 25); IC50 at 40 mg/mL HSA [3]: +++ (+++: IC50 ≤ 10 μg/mL); IC50 without HSA [4]: +++ (+++: IC50 ≤ 1 μg/mL) |
| Cc1ccc(S(=O)(=O)c2nnn3c2[nH]c(=O)c2ccc(N4CCN(CC(=O)N(C)C5CCCCC5)CC4)cc23)c(C)c1 [Compound 39] | 16.9 to 84.5 | < 1.69 | – |
| Cc1ccc(S(=O)(=O)c2nnn3c2[nH]c(=O)c2ccc(N4CCN(CC(=O)N5CCNC(=O)C5)CC4)cc23)c(C)c1 [Compound 62] | 17.3 to 86.4 | 1.73 to 8.64 | – |
| Cc1ccc(S(=O)(=O)c2nnn3c2[nH]c(=O)c2ccc(N4CCCN(CC(=O)N5CCCC5)CC4)cc23)c(C)c1 [Compound 83] | – | – | Ratio IC50 (in presence of HSA)/IC50 (in absence of HSA): +++ (+++: ratio ≤ 25); IC50 at 40 mg/mL HSA [3]: +++ (+++: IC50 ≤ 10 μg/mL); IC50 without HSA [4]: ++ (++: 1 μg/mL < IC50 ≤ 5 μg/mL) |
| Cc1ccc(S(=O)(=O)c2nnn3c2[nH]c(=O)c2ccc(N4CCN(CC(=O)N5C[C@H]6CNC[C@H]6C5)CC4)cc23)c(C)c1 [Compound 153] | 16.9 to 84.6 | 1.69 to 8.46 | – |
| Cc1ccc(S(=O)(=O)c2nnn3c2[nH]c(=O)c2ccc(N4CCN(CC(=O)NCc5cocn5)CC4)cc23)c(C)c1 [Compound 114] | 17.3 to 86.7 | < 1.73 | – |
| Cc1ccc(S(=O)(=O)c2nnn3c2[nH]c(=O)c2ccc(N4CCCN(CC(=O)N5CCNCC5)CC4)cc23)c(C)c1 [Compound 161] | < 17.3 | 1.73 to 8.64 | – |
| Cc1ccc(S(=O)(=O)c2nnn3c2[nH]c(=O)c2ccc(N4CCCN(CC(=O)NC5CCC5)CC4)cc23)c(C)c1 [Compound 51] | 17.7 to 88.7 | < 1.77 | – |
| Cc1ccc(S(=O)(=O)c2nnn3c2[nH]c(=O)c2ccc(N4CCN(CC(=O)NC5CNC5)CC4)cc23)c(C)c1 [Compound 138] | 18.2 to 90.8 | 1.82 to 9.08 | – |

| SMILES | IC50 [1] [µM] | IC50 [2] [µM] | also measured |
| --- | --- | --- | --- |
| Cc1ccc(S(=O)(=O)c2nnn3c2[nH]c(=O)c2ccc(N4CCN(CC(=O)N5CCN6CCCC6C5)CC4)cc23)c(C)c1 (stereo not shown) [Compound 130] | < 16.5 | < 1.65 | – |
| Cc1ccc(S(=O)(=O)c2nnn3c2[nH]c(=O)c2ccc(N4CCN(CC(=O)N5CCCN(CCO)CC5)CC4)cc23)c(C)c1 [Compound 71] | 16.1 to 80.3 | 1.61 to 8.03 | – |
| Cc1ccc(S(=O)(=O)c2nnn3c2[nH]c(=O)c2ccc(N4CCN(CC(=O)N5CCCCC5CN)CC4)cc23)c(C)c1 (stereo not shown) [Compound 145] | 16.9 to 84.4 | 1.69 to 8.44 | – |
| Cc1ccc(S(=O)(=O)c2nnn3c2[nH]c(=O)c2ccc(N4CCN(CC(=O)N5CC(C6CC6)C5)CC4)cc23)c(C)c1 [Compound 73] | 17.4 to 86.9 | < 1.74 | – |
| Cc1ccc(S(=O)(=O)c2nnn3c2[nH]c(=O)c2ccc(N4CCN(CC(=O)N5CCCC(CN)C5)CC4)cc23)c(C)c1 (stereo not shown) [Compound 144] | < 16.9 | 1.69 to 8.44 | – |
| Cc1ccc(S(=O)(=O)c2nnn3c2[nH]c(=O)c2ccc(N4CCCN(CC(=O)NCc5ccccc5)CC4)cc23)c(C)c1 [Compound 123] | 16.7 to 83.4 | < 1.67 | – |
| Cc1ccc(S(=O)(=O)c2nnn3c2[nH]c(=O)c2ccc(N4CCN(CC(=O)NCCn5ccnc5)CC4)cc23)c(C)c1 [Compound 117] | 17 to 84.8 | 1.7 to 8.48 | – |
| O=C(CN1CCN(c2ccc3c(=O)[nH]c4c(S(=O)(=O)c5ccc(C(F)(F)F)cc5)nnn4c3c2)CC1)N1CCOCC1 [Compound 169] | 16.5 to 82.6 | 1.65 to 8.26 | – |
| Cc1ccc(S(=O)(=O)c2nnn3c2[nH]c(=O)c2ccc(N4CCN(CC(=O)NCC5CC5)CC4)cc23)c(C)c1 [Compound 36] | 18.2 to 91 | < 1.82 | – |
| Cc1ccc(S(=O)(=O)c2nnn3c2[nH]c(=O)c2ccc(N4CCN(CC(=O)NCCCCO)CC4)cc23)c(C)c1 [Compound 20] | 17.6 to 88.1 | < 1.76 | – |
| Cc1ccc(S(=O)(=O)c2nnn3c2[nH]c(=O)c2ccc(N4CCN(CC(=O)NC5CCC(N(C)C)CC5)CC4)cc23)c(C)c1 (stereo not shown) [Compound 42] | 16.1 to 80.5 | < 1.61 | – |
| CC(C)c1ccc(S(=O)(=O)c2nnn3c2[nH]c(=O)c2ccc(N4CCN(CC(=O)N5CCCC5)CC4)cc23)cc1 [Compound 166] | – | – | Ratio IC50 (in presence of HSA)/IC50 (in absence of HSA): ++ (++: 25 < ratio ≤ 125); IC50 at 40 mg/mL HSA [3]: ++ (++: 10 μg/mL < IC50 ≤ 50 μg/mL); IC50 without HSA [4]: +++ (+++: IC50 ≤ 1 μg/mL) |
| Cc1ccc(S(=O)(=O)c2nnn3c2[nH]c(=O)c2ccc(N4CCN(CC(=O)N5CC(N)C5)CC4)cc23)c(C)c1 [Compound 139] | < 18.2 | 1.82 to 9.08 | – |
| Cc1ccc(S(=O)(=O)c2nnn3c2[nH]c(=O)c2ccc(N4CCN(CC(=O)N5CCC6(CCN(C)CC6)CC5)CC4)cc23)c(C)c1 [Compound 127] | 15.5 to 77.3 | < 1.55 | – |
| CCCNC(=O)CN1CCN(c2ccc3c(=O)[nH]c4c(S(=O)(=O)c5ccc(C)cc5C)nnn4c3c2)CC1 [Compound 5] | 18.6 to 93 | < 1.86 | – |
| Cc1ccc(S(=O)(=O)c2nnn3c2[nH]c(=O)c2ccc(N4CCN(CC(=O)N5CCCN(C)CC5)CC4)cc23)c(C)c1 [Compound 69] | < 16.9 | 1.69 to 8.44 | – |
| Cc1ccc(S(=O)(=O)c2nnn3c2[nH]c(=O)c2ccc(N4CCN(CC(=O)N5CCCC(CCN)C5)CC4)cc23)c(C)c1 (stereo not shown) [Compound 146] | – | – | Ratio IC50 (in presence of HSA)/IC50 (in absence of HSA): +++ (+++: ratio ≤ 25); IC50 at 40 mg/mL HSA [3]: +++ (+++: IC50 ≤ 10 μg/mL); IC50 without HSA [4]: ++ (++: 1 μg/mL < IC50 ≤ 5 μg/mL) |
| Cc1ccc(S(=O)(=O)c2nnn3c2[nH]c(=O)c2ccc(N4CCC4)cc23)c(C)c1 [Compound 45 of WO 2020/109350, reference compound] | > 122 | < 2.44 | Ratio IC50 (in presence of HSA)/IC50 (in absence of HSA): + (+: ratio > 125); IC50 (IC50 in the presence of 40 mg/mL HSA, 40 mg/mL HSA, highest concentration tested 128 μg/mL): > 313 µM; IC50 (concentration inhibiting the expression of lacZ in the absence of HSA, absence of HSA): < 2.44 µM |
| Cc1ccc(S(=O)(=O)c2nnn3c2[nH]c(=O)c2ccc(N4CCN(CC(=O)N5CCC(N(C)C)CC5)CC4)cc23)c(C)c1 [Compound 65] | < 16.5 | 1.65 to 8.24 | – |
| Cc1ccc(S(=O)(=O)c2nnn3c2[nH]c(=O)c2ccc(N4CCN(CC(=O)NCCO)CC4)cc23)c(C)c1 [Compound 19] | 18.5 to 92.7 | < 1.85 | – |
